Assay results reported in ChEMBL document CHEMBL1909046, “DrugMatrix in vitro pharmacology data”.

How the values were obtained:
[1] = molecular target: Beta-2 adrenergic receptor (Homo sapiens, UniProt P07550); assay: DRUGMATRIX: Adrenergic beta2 radioligand binding (ligand: [3H] CGP-12177); assay type: cell membranes, Membrane; conditions: cho; Not Active = under 50% inhibition at 10 µM
[2] = molecular target: Platelet-activating factor receptor (Homo sapiens, UniProt P25105); assay: biochemical; assay type: tissue-based; conditions: platelet; note: in other assays of this panel Not Active means under 50% inhibition at 10 µM
Sequence of Platelet-activating factor receptor (P25105 whole entry): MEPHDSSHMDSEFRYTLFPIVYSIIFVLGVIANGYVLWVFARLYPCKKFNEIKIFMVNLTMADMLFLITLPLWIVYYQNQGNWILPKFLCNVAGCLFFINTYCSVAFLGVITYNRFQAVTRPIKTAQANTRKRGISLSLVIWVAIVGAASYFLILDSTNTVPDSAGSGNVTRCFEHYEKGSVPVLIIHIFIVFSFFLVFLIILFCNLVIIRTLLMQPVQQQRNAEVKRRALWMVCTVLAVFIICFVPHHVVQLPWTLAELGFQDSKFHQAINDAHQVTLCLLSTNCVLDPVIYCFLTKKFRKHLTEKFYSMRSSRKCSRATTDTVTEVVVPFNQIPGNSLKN

[3] = molecular target: Protein kinase C alpha type (Homo sapiens, UniProt P17252); assay type: cell-based; conditions: sf9;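 note: inhibition of PKCalpha kinase activity measured in an enzyme assay with histone as the phosphorylation substrate; in other assays of this panel Not Active means under 50% inhibition at 10 µM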
Caspase-1 = molecular target: T1, Caspase-1 (Homo sapiens, UniProt P29466); set-up: species or system Escherichia coli;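 note: Caspase-1 enzyme inhibition assay with a peptide substrate; in other assays of this panel Not Active means under 50% inhibition at 10 µM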
T1 sequence (P29466 whole entry): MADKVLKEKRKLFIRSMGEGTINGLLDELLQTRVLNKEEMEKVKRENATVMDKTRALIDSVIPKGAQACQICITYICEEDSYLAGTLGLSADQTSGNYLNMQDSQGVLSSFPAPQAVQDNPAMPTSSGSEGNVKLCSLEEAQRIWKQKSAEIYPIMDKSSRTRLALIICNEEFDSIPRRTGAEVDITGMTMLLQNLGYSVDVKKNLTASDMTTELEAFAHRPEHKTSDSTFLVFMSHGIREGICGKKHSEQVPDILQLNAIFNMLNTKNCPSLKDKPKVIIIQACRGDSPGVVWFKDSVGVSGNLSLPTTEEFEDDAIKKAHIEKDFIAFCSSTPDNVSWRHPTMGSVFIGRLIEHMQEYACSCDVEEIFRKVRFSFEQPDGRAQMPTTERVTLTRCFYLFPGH

[4] = DRUGMATRIX: Atrial Natriuretic Factor (ANF) radioligand binding (ligand: [125I] ANF (rat)); assay type: cell membranes, Cavia porcellus, Dunkin-Hartley, Adrenal gland, Membrane; conditions: Not Active = under 50% inhibition at 10 µM
[5] = molecular target: T2, 5-hydroxytryptamine receptor 2C (Homo sapiens, UniProt P28335); assay: DRUGMATRIX: Serotonin (5-Hydroxytryptamine) 5-HT2C radioligand binding (ligand: [3H] Mesulergine); assay type: cell membranes, CHO-K1, Membrane; conditions: cho-k1; Not Active = under 50% inhibition at 10 µM
T2 sequence (P28335 whole entry): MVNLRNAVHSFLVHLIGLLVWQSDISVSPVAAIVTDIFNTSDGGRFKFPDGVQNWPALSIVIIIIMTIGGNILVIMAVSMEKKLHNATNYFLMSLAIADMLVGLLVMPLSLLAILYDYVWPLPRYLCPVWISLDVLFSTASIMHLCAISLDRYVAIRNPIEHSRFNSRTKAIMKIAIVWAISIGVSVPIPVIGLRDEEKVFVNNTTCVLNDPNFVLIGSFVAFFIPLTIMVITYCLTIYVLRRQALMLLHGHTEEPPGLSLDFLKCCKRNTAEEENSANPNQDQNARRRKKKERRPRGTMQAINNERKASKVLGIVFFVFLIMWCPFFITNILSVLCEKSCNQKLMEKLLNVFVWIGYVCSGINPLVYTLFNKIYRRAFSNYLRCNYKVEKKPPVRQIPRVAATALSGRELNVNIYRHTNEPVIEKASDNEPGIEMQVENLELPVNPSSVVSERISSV

[6] = DRUGMATRIX: Tumor Necrosis Factor (TNF), Non-Selective radioligand binding (ligand: [125I] TNF-alpha); assay type: cell membranes, Membrane; conditions: u-937; Not Active = under 50% inhibition at 10 µM
[7] = DRUGMATRIX: Glutamate, NMDA, Agonism radioligand binding (ligand: [3H] CGP-39653); assay type: cell membranes, Rattus norvegicus, Wistar, Cerebral cortex, Membrane; conditions: Not Active = under 50% inhibition at 10 µM
[8] = DRUGMATRIX: Nicotinic Acetylcholine radioligand binding (ligand: [125I] Epibatidine); assay type: cell membranes, Membrane; conditions: imr-32; Not Active = under 50% inhibition at 10 µM
[9] = molecular target: T3, Angiotensin-converting enzyme (Oryctolagus cuniculus, UniProt P12822); assay: biochemical; assay type: tissue-based, Lung;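 note: enzymatic inhibition of angiotensin-converting enzyme measured with FAPGG as the substrate; in other assays of this panel Not Active means under 50% inhibition at 10 µM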
T3 sequence (P12822 whole entry): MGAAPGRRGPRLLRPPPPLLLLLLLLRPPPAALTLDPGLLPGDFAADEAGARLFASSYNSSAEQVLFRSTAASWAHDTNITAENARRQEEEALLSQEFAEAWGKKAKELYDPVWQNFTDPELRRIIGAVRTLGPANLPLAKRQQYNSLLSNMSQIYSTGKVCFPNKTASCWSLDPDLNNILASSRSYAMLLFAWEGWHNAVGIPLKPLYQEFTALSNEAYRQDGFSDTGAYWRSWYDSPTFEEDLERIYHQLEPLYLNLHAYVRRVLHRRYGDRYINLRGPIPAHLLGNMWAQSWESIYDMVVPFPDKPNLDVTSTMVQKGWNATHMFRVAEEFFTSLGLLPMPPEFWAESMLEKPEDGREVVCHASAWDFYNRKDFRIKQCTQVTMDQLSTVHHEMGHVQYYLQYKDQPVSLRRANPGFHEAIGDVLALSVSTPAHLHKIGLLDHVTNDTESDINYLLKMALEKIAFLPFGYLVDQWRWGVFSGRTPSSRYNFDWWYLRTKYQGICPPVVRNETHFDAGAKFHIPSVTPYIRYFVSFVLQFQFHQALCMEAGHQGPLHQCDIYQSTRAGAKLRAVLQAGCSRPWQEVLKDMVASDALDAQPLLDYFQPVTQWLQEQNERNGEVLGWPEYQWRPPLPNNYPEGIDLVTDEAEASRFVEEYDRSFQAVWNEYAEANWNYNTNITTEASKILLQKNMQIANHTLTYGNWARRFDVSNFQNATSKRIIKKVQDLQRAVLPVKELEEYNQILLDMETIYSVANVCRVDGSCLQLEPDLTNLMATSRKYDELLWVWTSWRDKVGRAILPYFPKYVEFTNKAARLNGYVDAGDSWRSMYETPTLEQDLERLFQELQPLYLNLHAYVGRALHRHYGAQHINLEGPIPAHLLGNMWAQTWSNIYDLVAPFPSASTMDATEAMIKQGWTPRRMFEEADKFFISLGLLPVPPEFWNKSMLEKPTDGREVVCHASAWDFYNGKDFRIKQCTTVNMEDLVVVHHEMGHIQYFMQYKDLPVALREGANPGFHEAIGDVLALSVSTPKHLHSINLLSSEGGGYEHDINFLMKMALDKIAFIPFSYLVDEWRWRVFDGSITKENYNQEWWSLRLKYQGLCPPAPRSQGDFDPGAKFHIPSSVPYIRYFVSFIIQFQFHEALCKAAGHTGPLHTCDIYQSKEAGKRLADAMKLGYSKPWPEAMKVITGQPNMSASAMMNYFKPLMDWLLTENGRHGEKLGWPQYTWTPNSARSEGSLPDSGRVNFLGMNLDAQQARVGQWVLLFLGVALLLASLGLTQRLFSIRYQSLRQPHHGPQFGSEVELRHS

[10] = molecular target: Prostaglandin G/H synthase 1 (Homo sapiens, UniProt P23219); assay: biochemical; assay type: tissue-based, Platelet; conditions: platelet
Sequence of Prostaglandin G/H synthase 1 (P23219 whole entry): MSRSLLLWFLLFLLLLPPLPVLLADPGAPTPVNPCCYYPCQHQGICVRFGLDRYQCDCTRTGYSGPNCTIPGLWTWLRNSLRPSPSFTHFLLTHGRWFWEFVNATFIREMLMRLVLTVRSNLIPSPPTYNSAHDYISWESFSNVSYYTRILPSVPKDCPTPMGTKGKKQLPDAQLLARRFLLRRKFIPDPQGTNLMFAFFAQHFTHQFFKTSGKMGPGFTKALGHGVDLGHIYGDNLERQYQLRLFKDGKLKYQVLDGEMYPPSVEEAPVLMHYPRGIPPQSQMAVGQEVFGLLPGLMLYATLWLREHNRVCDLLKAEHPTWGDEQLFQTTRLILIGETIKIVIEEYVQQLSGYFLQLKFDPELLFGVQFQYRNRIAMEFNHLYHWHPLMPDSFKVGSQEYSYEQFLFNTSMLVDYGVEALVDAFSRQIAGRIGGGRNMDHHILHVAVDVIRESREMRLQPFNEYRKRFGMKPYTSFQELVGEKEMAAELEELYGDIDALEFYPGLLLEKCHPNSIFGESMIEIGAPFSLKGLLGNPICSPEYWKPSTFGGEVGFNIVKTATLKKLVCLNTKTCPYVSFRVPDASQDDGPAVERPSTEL

Cytochrome P450 3A4 = Cytochrome P450 3A4 (Homo sapiens, UniProt P08684); conditions: bti-tn-5b1-4; note: in other assays of this panel Not Active means under 50% inhibition at 10 µM
Sequence of Cytochrome P450 3A4 (P08684 whole entry): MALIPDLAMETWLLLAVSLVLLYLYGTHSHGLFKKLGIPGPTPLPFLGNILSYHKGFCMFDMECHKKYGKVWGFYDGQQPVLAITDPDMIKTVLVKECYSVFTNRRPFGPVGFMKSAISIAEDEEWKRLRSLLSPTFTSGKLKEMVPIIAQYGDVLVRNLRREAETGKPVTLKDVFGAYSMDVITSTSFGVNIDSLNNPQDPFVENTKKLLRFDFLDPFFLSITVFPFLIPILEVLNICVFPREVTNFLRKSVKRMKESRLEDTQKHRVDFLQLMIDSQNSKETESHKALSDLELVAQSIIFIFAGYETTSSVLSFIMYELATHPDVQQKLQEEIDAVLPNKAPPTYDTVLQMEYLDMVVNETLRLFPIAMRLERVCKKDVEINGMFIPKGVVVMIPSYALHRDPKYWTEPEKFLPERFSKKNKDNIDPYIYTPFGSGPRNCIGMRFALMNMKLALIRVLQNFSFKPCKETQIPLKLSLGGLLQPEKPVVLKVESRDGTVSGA

Sequence of Beta-2 adrenergic receptor (P07550 whole entry): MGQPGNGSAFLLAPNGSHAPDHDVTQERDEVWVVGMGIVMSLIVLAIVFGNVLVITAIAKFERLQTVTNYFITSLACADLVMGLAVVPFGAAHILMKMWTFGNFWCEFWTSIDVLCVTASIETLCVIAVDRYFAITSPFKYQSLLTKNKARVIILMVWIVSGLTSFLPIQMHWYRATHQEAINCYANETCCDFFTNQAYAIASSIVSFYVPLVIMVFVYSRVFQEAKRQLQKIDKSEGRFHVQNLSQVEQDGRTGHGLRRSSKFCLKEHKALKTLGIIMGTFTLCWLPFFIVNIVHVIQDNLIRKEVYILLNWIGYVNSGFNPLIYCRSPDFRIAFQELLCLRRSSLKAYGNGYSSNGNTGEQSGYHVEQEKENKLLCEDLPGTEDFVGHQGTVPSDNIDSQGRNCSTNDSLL

CC[N+](CC)(CC)CCOc1cccc(OCC[N+](CC)(CC)CC)c1OCC[N+](CC)(CC)CC.[I-].[I-].[I-] [GALLAMINE TRIETHIODIDE]
Not Active: IC50 [1] | IC50 [2] | IC50 [3] | IC50 (Caspase-1) | IC50 [4] | Ki [4] | IC50 [5] | IC50 [6] | Ki [6] | IC50 [7] | Ki [7] | IC50 [8] | Ki [8] | IC50 [9] | IC50 [10] | IC50 (Cytochrome P450 3A4) | Ki (Cytochrome P450 3A4)

Nc1nc2c(ncn2COC(CO)CO)c(=O)[nH]1 [GANCICLOVIR]
Not Active: IC50 [1] | IC50 [2] | IC50 [3] | IC50 (Caspase-1) | IC50 [4] | Ki [4] | IC50 [5] | IC50 [6] | Ki [6] | IC50 [7] | Ki [7] | IC50 [8] | Ki [8] | IC50 [9] | IC50 [10] | IC50 (Cytochrome P450 3A4) | Ki (Cytochrome P450 3A4)

COc1c(N2CCNC(C)C2)c(F)cc2c(=O)c(C(=O)O)cn(C3CC3)c12 (configuration not stated) [GATIFLOXACIN]
Not Active: IC50 [1] | IC50 [2] | IC50 [3] | IC50 (Caspase-1) | IC50 [4] | Ki [4] | IC50 [5] | IC50 [6] | Ki [6] | IC50 [7] | Ki [7] | IC50 [8] | Ki [8] | IC50 [9] | IC50 [10] | IC50 (Cytochrome P450 3A4) | Ki (Cytochrome P450 3A4)

CC1(C)[C@@H](O[C@H]2O[C@H](C(=O)O)[C@@H](O)[C@H](O)[C@H]2O[C@@H]2O[C@H](C(=O)O)[C@@H](O)[C@H](O)[C@H]2O)CC[C@]2(C)[C@H]3C(=O)C=C4[C@@H]5C[C@@](C)(C(=O)O)CC[C@]5(C)CC[C@@]4(C)[C@]3(C)CC[C@@H]12 [GLYCYRRHIZIN]
Not Active: IC50 [1] | IC50 [2] | IC50 [3] | IC50 (Caspase-1) | IC50 [4] | Ki [4] | IC50 [5] | IC50 [6] | Ki [6] | IC50 [7] | Ki [7] | IC50 [8] | Ki [8] | IC50 [9] | IC50 [10] | IC50 (Cytochrome P450 3A4) | Ki (Cytochrome P450 3A4)

COC1=CC(=O)C[C@@H](C)[C@]12Oc1c(Cl)c(OC)cc(OC)c1C2=O [GRISEOFULVIN]
Not Active: IC50 [1] | IC50 [2] | IC50 [3] | IC50 (Caspase-1) | IC50 [4] | Ki [4] | IC50 [5] | IC50 [6] | Ki [6] | IC50 [7] | Ki [7] | IC50 [8] | Ki [8] | IC50 [9] | IC50 [10] | IC50 (Cytochrome P450 3A4) | Ki (Cytochrome P450 3A4)

C/C=C1\[C@H]2C=C(C)C[C@]1(N)c1ccc(=O)[nH]c1C2 [HUPERZINE A]
Not Active: IC50 [1] | IC50 [2] | IC50 [3] | IC50 (Caspase-1) | IC50 [4] | Ki [4] | IC50 [5] | IC50 [6] | Ki [6] | IC50 [7] | Ki [7] | IC50 [8] | Ki [8] | IC50 [9] | IC50 [10] | IC50 (Cytochrome P450 3A4) | Ki (Cytochrome P450 3A4)
